For orientation: IC50 means the concentration that gives 50% inhibition.

This is an account of results in patent US20230051589A1, “COMPOUNDS AND COMPOSITIONS FOR TREATING CONDITIONS ASSOCIATED WITH NLRP ACTIVITY” (Novartis AG, priority 2018, published 2023).

This assay deals with IL-1β production in PMA-differentiated THP-1 cells. Briefly: IL-1β production in PMA-differentiated THP-1 cells stimulated with gramicidin (hTHP-1 assay, 2% fetal bovine serum; Procedures 1-3). It is filed as cell-based, human. To be noted: Table B2, class symbols, read-out: IC50. In a few lines: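 IL-1β released into supernatants was read by HTRF after 2 h gramicidin (5 μM) challenge. Before challenge, compounds (3-fold dilutions, top 100 μM, 0.37% DMSO) were given 1 h on THP-1 cells differentiated with PMA (20 ng/ml, 16-18 h) and held in 2% FBS medium.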

[1] abbreviates: hTHP-1 assay containing 2% fetal bovine serum.
Where [2] appears, read: Homo sapiens, THP-1, hTHP-1 assay containing 2% fetal bovine serum.

Like-named read-outs stand apart in the source and are kept apart here.

As to `CC(C)(O)c1ccnc(S(N)(=O)=NC(=O)Nc2c3c(c(C#N)c4c2CCC4)CCC3)c1` (centres unmarked) [Example 456, N′-((8-cyano-1,2,3,5,6,7-hexahydro-s-indacen-4-yl)carbamoyl)-4-(2-hydroxypropan-2-yl)pyridine-2-sulfonimidamide], the concentration for half-maximal inhibition (IC50) under setting [1] was in the range of 200 to 1000 nM. For the compound `COc1ccc(Cn2nc(S(N)(=O)=NC(=O)Nc3c4c(cc5c3CCC5)CCC4)cc2C(C)(C)O)cc1` (centres unmarked) [Example 457, N′-((1,2,3,5,6,7-hexahydro-s-indacen-4-yl)carbamoyl)-5-(2-hydroxypropan-2-yl)-1-(4-methoxybenzyl)-1H-pyrazole-3-sulfonimidamide], the IC50 under setting [1] is 200 to 1000 nM. In the case of `C=CCc1c2c(c(NC(=O)N=S(N)(=O)c3cc(C(C)(C)O)n(-c4ccccc4)n3)c3c1CCC3)CCC2` (centres unmarked) [Example 458, N′-((8-allyl-1,2,3,5,6,7-hexahydro-s-indacen-4-yl)carbamoyl)-5-(2-hydroxypropan-2-yl)-1-phenyl-1H-pyrazole-3-sulfonimidamide], the IC50 under setting [2] was in the range of 1000 to 5000 nM. With `C/C=C/c1c2c(c(NC(=O)N=S(N)(=O)c3cc(C(C)(C)O)n(-c4ccccc4)n3)c3c1CCC3)CCC2` (centres unmarked) [Example 459, (E)-5-(2-hydroxypropan-2-yl)-1-phenyl-N′-((8-(prop-1-en-1-yl)-1,2,3,5,6,7-hexahydro-s-indacen-4-yl)carbamoyl)-1H-pyrazole-3-sulfonimidamide], the IC50 under setting [2] fell in the range of 1000 to 5000 nM. `NS(=O)(=NC(=O)Nc1c2c(cc3c1CCC3)CCC2)c1cnc(C(O)(CO)CO)s1` (centres unmarked) [Example 460, N′-((1,2,3,5,6,7-hexahydro-s-indacen-4-yl)carbamoyl)-2-(1,2,3-trihydroxypropan-2-yl) thiazole-5-sulfonimidamide]: the IC50 under setting [2] was 40 to 200 nM. Regarding `CC(C)(O)c1cncc(S(N)(=O)=NC(=O)Nc2c3c(c(C#N)c4c2CCC4)CCC3)c1` (centres unmarked) [Example 461, N′-((8-cyano-1,2,3,5,6,7-hexahydro-s-indacen-4-yl)carbamoyl)-5-(2-hydroxypropan-2-yl)pyridine-3-sulfomidamide], the IC50 under setting [2] is 200 to 1000 nM. `NS(=O)(=NC(=O)Nc1c2c(cc3c1CCC3)CCC2)c1ccc(CN2CCC2)cc1F` (centres unmarked) [Example 462, 4-(azetidin-1-ylmethyl)-2-fluoro-N′-((1,2,3,5,6,7-hexahydro-s-indacen-4-yl)carbamoyl)benzenesulfonimidamide]: under setting [2], the IC50 is 1000 to 5000 nM. For `NS(=O)(=NC(=O)Nc1c2c(cc3c1CC3)CCC2)c1ccc(CN2CCC2)cc1F` (centres unmarked) [Example 463, 4-(azetidin-1-ylmethyl)-2-fluoro-N′-((2,4,5,6-tetrahydro-1H-cyclobuta[f]inden-3-yl)carbamoyl)benzenesulfonimidamide], the IC50 under setting [2] was 1000 to 5000 nM.

For the compound `CC(C)(O)c1ccc(S(N)(=O)=NC(=O)Nc2cc3c(c4c2CCC4)CCC3)cn1` (centres unmarked) [Example 464, N′-((1,2,3,6,7,8-hexahydro-as-indacen-4-yl)carbamoyl)-6-(2-hydroxypropan-2-yl)pyridine-3-sulfonimidamide], the IC50 under setting [2] was in the range of 1000 to 5000 nM. Consider `Cc1c(C2CC2)cc2c(c1NC(=O)N=S(N)(=O)c1cc(C(C)(C)O)cs1)CCC2` (centres unmarked) [Example 465, N′-((6-cyclopropyl-5-methyl-2,3-dihydro-1H-inden-4-yl)carbamoyl)-4-(2-hydroxypropan-2-yl)thiophene-2-sulfonimidamide], for which the IC50 under setting [2] fell in the range of 40 to 200 nM. For the compound `CC(C)(O)c1csc(S(N)(=O)=NC(=O)Nc2c3c(cc4c2C(=O)CC4)CCC3)c1` (centres unmarked) [Example 466, 4-(2-Hydroxypropan-2-yl)-N′-((3-oxo-1,2,3,5,6,7-hexahydro-s-indacen-4-yl)carbamoyl)thiophene-2-sulfonimidamide], the IC50 under setting [2] was 200 to 1000 nM. The same measure, in the same setting: to `CC(C)(O)c1csc(S(N)(=O)=NC(=O)Nc2c3c(cc4c2CC4)CCC3)c1` (centres unmarked) [Example 467, 4-(2-Hydroxypropan-2-yl)-N′-((2,4,5,6-tetrahydro-1H-cyclobuta[f]inden-3-yl)carbamoyl)thiophene-2-sulfonimidamide] belongs 40 to 200 nM. For the compound `Cc1c(C2CC2)cc2c(c1NC(=O)N=S(N)(=O)c1cnc(C(C)(C)O)s1)CCC2` (centres unmarked) [Example 468], the IC50 under setting [2] fell in the range of 40 to 200 nM.

As for `CC(C)(O)c1ccc(S(N)(=O)=NC(=O)Nc2c3c(cc4c2C(=O)CC4)CCC3)cn1` (centres unmarked) [Example 469, 6-(2-Hydroxypropan-2-yl)-N′-((3-oxo-1,2,3,5,6,7-hexahydro-s-indacen-4-yl)carbamoyl)pyridine-3-sulfonimidamide], the IC50 under setting [2] is 1000 to 5000 nM.

On to `CC(C)(O)c1ccc(S(N)(=O)=NC(=O)Nc2c3c(c(C#N)c4c2CCC4)CCC3)cn1` (centres unmarked) [Example 470, N′-((8-cyano-1,2,3,5,6,7-hexahydro-s-indacen-4-yl)carbamoyl)-6-(2-hydroxypropan-2-yl)pyridine-3-sulfonimidamide], for which, under setting [2], the half-inhibitory concentration (IC50) fell in the range of 200 to 1000 nM. Turning to `CN(C)C(c1ccc(S(N)(=O)=NC(=O)Nc2c3c(cc4c2CCC4)CCC3)cc1)C(F)F` (centres unmarked) [Example 474, 4-(1-(Dimethylamino)-2,2-difluoroethyl)-N-((1,2,3,5,6,7-hexahydro-s-indacen-4-yl)carbamoyl)benzenesulfonimidamide], the IC50 under setting [2] lay within 1000 to 5000 nM. Turning to `CC(C)(O)c1nc(CO)c(S(N)(=O)=NC(=O)Nc2c3c(cc4c2CCC4)CCC3)s1` (centres unmarked) [Example 475, N′-((1,2,3,5,6,7-hexahydro-s-indacen-4-yl)carbamoyl)-4-(hydroxymethyl)-2-(2-hydroxypropan-2-yl)thiazole-5-sulfonimidamide], the IC50 under setting [2] is 40 to 200 nM. As to `CC(C)(O)c1cc(S(N)(=O)=NC(=O)Nc2c3c(cc4c2CCC4)CCC3)sc1-c1ccccc1` (centres unmarked) [Example 477, N′-((1,2,3,5,6,7-hexahydro-s-indacen-4-yl)carbamoyl)-4-(2-hydroxypropan-2-yl)-5-phenylthiophene-2-sulfomidamide], the IC50 under setting [1] fell in the range of 200 to 1000 nM. As for `CC(C)c1cc(S(N)(=O)=NC(=O)Nc2c3c(cc4c2CCC4)CCC3)c(F)cn1` (centres unmarked) [Example 478, 5-Fluoro-N′-((1,2,3,5,6,7-hexahydro-s-indacen-4-yl)carbamoyl)-2-isopropylpyridine-4-sulfonimidamide], under setting [2], the IC50 lay in the range of 200 to 1000 nM. `CN1CCc2cc(S(N)(=O)=NC(=O)Nc3c4c(cc5c3CCC5)CCC4)sc2C1` (centres unmarked) [Example 479, N′-((1,2,3,5,6,7-hexahydro-s-indacen-4-yl)carbamoyl)-6-methyl-4,5,6,7-tetrahydrothieno[2,3-c]pyridine-2-sulfonimidamide]: the IC50 under setting [2] is 200 to 1000 nM.

With `CN(C)C(CF)c1ccc(S(N)(=O)=NC(=O)Nc2c3c(cc4c2CCC4)CCC3)cc1` (centres unmarked) [Example 480, 4-(1-(Dimethylamino)-2-fluoroethyl)-N′-((1,2,3,5,6,7-hexahydro-s-indacen-4-yl)carbamoyl)benzenesulfonimidamide], the IC50 under setting [2] was in the range of 1000 to 5000 nM. Regarding `CNCc1cc(F)c(S(N)(=O)=NC(=O)Nc2c3c(cc4c2CCC4)CCC3)s1` (centres unmarked) [Example 481, 3-Fluoro-N′-((1,2,3,5,6,7-hexahydro-s-indacen-4-yl)carbamoyl)-5-((methylamino)methyl)thiophene-2-sulfonimidamide], the IC50 under setting [2] lay within 40 to 200 nM. For `CC(C)(O)c1cc(C#N)cc(S(N)(=O)=NC(=O)Nc2c3c(c(C#N)c4c2CCC4)CCC3)c1` (centres unmarked) [Example 482, 3-Cyano-N′-((8-cyano-1,2,3,5,6,7-hexahydro-s-indacen-4-yl)carbamoyl)-5-(2-hydroxypropan-2-yl)benzenesulfonimidamide], under setting [2], the IC50 is 1000 to 5000 nM. As for `NS(=O)(=NC(=O)Nc1c2c(cc3c1CCC3)CCC2)c1ccc(C2CCCC2)nc1` (centres unmarked) [Example 483, 6-Cyclopentyl-N′-((1,2,3,5,6,7-hexahydro-s-indacen-4-yl)carbamoyl)pyridine-3-sulfonimidamide], the IC50 under setting [2] lay in the range of 1000 to 5000 nM. The same measure, in the same setting: as for `CN(C)C(c1ccc(S(N)(=O)=NC(=O)Nc2c3c(cc4c2CCC4)CCC3)cc1)C1CC1` (centres unmarked) [Example 484, 4-(Cyclopropyl(dimethylamino)methyl)-N′-((1,2,3,5,6,7-hexahydro-s-indacen-4-yl)carbamoyl)benzenesulfonimidamide], the figure is 200 to 1000 nM; as for `NS(=O)(=NC(=O)Nc1c2c(cc3c1CCC3)CCC2)c1ccc(C(F)F)nc1` (centres unmarked) [Example 485, 6-(Difluoromethyl)-N′-((1,2,3,5,6,7-hexahydro-s-indacen-4-yl)carbamoyl)pyridine-3-sulfonimidamide], 1000 to 5000 nM; as for `CNC(C)(C)c1ccc(S(N)(=O)=NC(=O)Nc2c3c(cc4c2CCC4)CCC3)cc1` (centres unmarked) [Example 486, N′-((1,2,3,5,6,7-hexahydro-s-indacen-4-yl)carbamoyl)-4-(2-(methylamino)propan-2-yl) benzenesulfonimidamide], 1000 to 5000 nM.

Consider `CN(Cc1ccc(S(N)(=O)=NC(=O)Nc2c3c(cc4c2CCC4)CCC3)cc1)CC(F)(F)F` (centres unmarked) [Example 487, N′-((1,2,3,5,6,7-hexahydro-s-indacen-4-yl)carbamoyl)-4-((methyl(2,2,2-trifluoroethyl)amino)methyl) benzenesulfonimidamide], for which the IC50 under setting [2] fell in the range of 1000 to 5000 nM. On the same count and under the same terms, as for `NS(=O)(=NC(=O)Nc1c2c(cc3c1CCC3)CCC2)c1ccccc1` (centres unmarked) [Example 488, N′-((1,2,3,5,6,7-hexahydro-s-indacen-4-yl)carbamoyl)benzenesulfonimidamide], the figure is 5000 to 30000 nM; as for `CC(C)N(C)c1ccc(S(N)(=O)=NC(=O)Nc2c3c(cc4c2CCC4)CCC3)cc1` (centres unmarked) [Example 489, N′-((1,2,3,5,6,7-hexahydro-s-indacen-4-yl)carbamoyl)-4-(isopropyl(methyl)ammo) benzenesulfonimidamide], 5000 to 30000 nM; as for `CC(C)(O)c1cc(S(N)(=O)=NC(=O)Nc2c3c(c(C#N)c4c2CCC4)CCC3)nn1-c1ccccc1` (centres unmarked) [Example 490, N′-((8-cyano-1,2,3,5,6,7-hexahydro-s-indacen-4-yl)carbamoyl)-5-(2-hydroxypropan-2-yl)-1-phenyl-1H-pyrazole-3-sulfonamide], 200 to 1000 nM. `CN(C)C(c1ccc(S(N)(=O)=NC(=O)Nc2c3c(cc4c2CCC4)CCC3)cc1)C(F)(F)F` (centres unmarked) [Example 492, 4-(1-(Dimethylamino)-2,2,2-trifluoroethyl)-N′-((1,2,3,5,6,7-hexahydro-s-indacen-4-yl)carbamoyl)benzenesulfonimidamide]: under setting [2], the IC50 is 1000 to 5000 nM.
